# Measured values reported in patent US10251838B2, “Stereospecific lipids for locoregional therapy with long-term circulating stimuli-sensitive nanocarrier systems” (THERMOSOME GmbH, priority 2013, dated 2019).
# What was measured:
# [1] = Phase transition temperatures (TM) of phospholipids; assay type: physicochemical; conditions: for TM (phase transition temperature): phosphatidylcholine/phosphatidyldiglycerol/phosphatidyltriglycerol/phosphatidyltetraglycerol with the given fatty acid pattern; for main (phase) transition temperature: pure lipid
# Procedure: By selecting a phosphatidylcholine having a suitable main transition temperature, the stimuli-sensitive nanocarrier system, in particular the thermosensitive liposome, can be customised. Table 1 gives main transition temperatures (TM) of phosphatidylcholines whose main transition temperatures are in the range of from 0 to 80° C.
# The fatty acid chains and their distribution over positions 1 and 2 of the glycerol molecule dominate the physical properties of the phospholipids. The phase transition temperature is independent of whether the phospholipid is the phosphatidylcholine, the phosphatidyldiglycerol, the phosphatidyltriglycerol or the phosphatidyltetraglycerol.
# [2] = Stability and circulation of liposomes in serum / bloodstream (animal experiments); assay type: in vivo; conditions: lipid alone in liposomes
# Procedure: By using phosphatidyloligoglycerols, it has been possible to prepare thermosensitive liposomes having a prolonged blood circulation time (WO 2002/064116 and WO 2004/026282). […] The majority of the liposomes remain in the blood circulation over a period of 2 hours and are therefore available for heat-controlled release of the active ingredient. Owing to the rapid release-kinetics of these liposomes with heat-induced release of the active ingredient within a few seconds, preferably <15 seconds, more preferably <10 seconds, a previously enclosed active ingredient can be released immediately by targeted heating of the liposomes to temperatures >39° C., preferably 40-42° C.
# The main transition temperature for (1,2-dipalmitoyl)-phosphatidylcholine is approximately 41° C. The purely physical requirements for clinical use in liposomes can accordingly be fulfilled by this phosphatidylcholine. However, the serum stability in the bloodstream of humans and animals that is required for clinical applications is lacking. (1,2-Dipalmitoyl)phosphatidylcholine alone is therefore not sufficient to achieve the therapeutic aims. […]
# Enclosed active ingredients are only released when the temperature is increased locally to about 42° C. […]
# [3] = tissue depth of 2000-3000 μm; cited from earlier work
Structure (SMILES),TM (phase transition temperature) [1] [°C],also measured
"CCCCCCCCCCCCCCCCCCCC(=O)OC[C@H](COP(=O)([O-])OCC[N+](C)(C)C)OC(=O)CCCCCCCCCCCCCCCCCCC [1,2-diarachinoyl-, 1,2-diarachinoylglycero-3-phosphocholine]",66,–
"CCCCCCCCCCCCCCCCCCCCCC(=O)OCC(COP(=O)([O-])OCC[N+](C)(C)C)OC(=O)CCCCCCCCCCCCCCCCCCCCC (stereo not drawn) [1,2-dibehenoyl-, 1,2-dibehenoylglycero-3-phosphocholine]",75,–
"CCCCCCCCCCCCCCCCCCCCCCCC(=O)OCC(COP(=O)([O-])OCC[N+](C)(C)C)OC(=O)CCCCCCCCCCCCCCCCCCCCCCC (stereo not drawn) [1,2-dilignoceroyl-, 1,2-dilignoceroylglycero-3-phosphocholine]",80,–
"CCCCCCCCCCCCCC(=O)OCC(COC(=O)CCCCCCCCCCCCC)OP(=O)([O-])OCC[N+](C)(C)C [1,3-dimyristoyl-, 1,3-dimyristoylglycero-2-phosphocholine]",19,–
"CCCCCCCCCCCCCCCC(=O)OCC(COC(=O)CCCCCCCCCCCCCCC)OP(=O)([O-])OCC[N+](C)(C)C [1,3-dipalmitoyl-, 1,3-palmitoylglycero-2-phosphocholine]",39,–
"CCCCCCCCCCCCCCCCCC(=O)OCC(COC(=O)CCCCCCCCCCCCCCCCC)OP(=O)([O-])OCC[N+](C)(C)C [1,3-distearoyl-, 1,3-distearoylglycero-2-phosphocholine]",53,–
"CCCCCCCC/C=C\CCCCCCCC(=O)OC(COC(=O)CCCCCCCCCCCCCCCCCCCCC)COP(=O)([O-])OCC[N+](C)(C)C (stereo not drawn) [1-behenoyl-2-oleoyl-, 1-behenoyl-2-oleoylglycero-3-phosphocholine]",14,–
"CCCCCCCC/C=C\CCCCCCCC(=O)OC(COC(=O)CCCCCCCCCCCCCCC)COP(=O)([O-])OCC[N+](C)(C)C (stereo not drawn) [1-palmitoyl-2-oleoyl-, 1-palmitoyl-2-oleoylglycero-3-phosphocholine]",5,–
"CCCCCCCC/C=C\CCCCCCCC(=O)O[C@H](COC(=O)CCCCCCCCCCCCCCCCC)COP(=O)([O-])OCC[N+](C)(C)C [1-stearoyl-2-oleoyl-, 1-stearoyl-2-oleoyl-3-phosphocholine]",7,–
"CCCCCCCCCCCCCCCCCC(=O)OCC(COC(=O)CCCCCCCCCCCCC)OP(=O)([O-])OCC[N+](C)(C)C (stereo not drawn) [1-stearoyl-3-myristoyl-, 1-stearoyl-3-myristoylglycero-2-phosphocholine]",46,–
CO[C@@]12[C@H](COC(N)=O)C3=C(C(=O)C(C)=C(N)C3=O)N1C[C@@H]1N[C@@H]12 [mitomycin C],–,dogs in which no further mitomycin C was detectable [3]: 18/24

# Now from value to compound, other results behind:
TM (phase transition temperature) [1] [°C],Structure (SMILES),also measured
23,"CCCCCCCCCCCCCC(=O)OCC(COP(=O)([O-])OCC[N+](C)(C)C)OC(=O)CCCCCCCCCCCCC (stereo not drawn) [1,2-dimyristoyl-, 1,2-dimyristoylglycero-3-phosphocholine]",main (phase) transition temperature [1]: 23 °C
41,"CCCCCCCCCCCCCCCC(=O)OCC(COP(=O)([O-])OCC[N+](C)(C)C)OC(=O)CCCCCCCCCCCCCCC (stereo not drawn) [1,2-dipalmitoyl-, 1,2-dipalmitoylglycero-3-phosphocholine]","main (phase) transition temperature ([1]; listed as (1,2-dipalmitoyl)-phosphatidylcholine): approximately 41 °C; main (phase) transition temperature ([1]; listed as dipalmitoyl-phosphatidylcholine): 41 °C; serum stability in the bloodstream of humans and animals [2]: lacking"
56,"CCCCCCCCCCCCCCCCCC(=O)OCC(COP(=O)([O-])OCC[N+](C)(C)C)OC(=O)CCCCCCCCCCCCCCCCC (stereo not drawn) [1,2-distearoyl-, 1,2-distearoylglycero-3-phosphocholine]",main (phase) transition temperature [1]: 56 °C
37,"CCCCCCCCCCCCCCCC(=O)OC(COC(=O)CCCCCCCCCCCCC)COP(=O)([O-])OCC[N+](C)(C)C (stereo not drawn) [1-myristoyl-2-palmitoyl-, 1-myristoyl-2-palmitoylglycero-3-phosphocholine]",–
42,"CCCCCCCCCCCCCCCCCC(=O)OC(COC(=O)CCCCCCCCCCCCC)COP(=O)([O-])OCC[N+](C)(C)C (stereo not drawn) [1-myristoyl-2-stearoyl-, 1-myristoyl-2-stearoylglycero-3-phosphocholine]",–
11,"CCCCCCCCCCCCCCCC(=O)OCC(COP(=O)([O-])OCC[N+](C)(C)C)OC(=O)CCCCCCCCCCC (stereo not drawn) [1-palmitoyl-2-lauroyl-, 1-palmitoyl-2-lauroylglycero-3-phosphocholine]",–
27,"CCCCCCCCCCCCCCCC(=O)OCC(COP(=O)([O-])OCC[N+](C)(C)C)OC(=O)CCCCCCCCCCCCC (stereo not drawn) [1-palmitoyl-2-myristoyl-, 1-palmitoyl-2-myristoylglycero-3-phosphocholine]",–
52,"CCCCCCCCCCCCCCCCCC(=O)OC(COC(=O)CCCCCCCCCCCCCCC)COP(=O)([O-])OCC[N+](C)(C)C (stereo not drawn) [1-palmitoyl-2-stearoyl-, 1-palmitoyl-2-stearoylglycero-3-phosphocholine]",–
17,"CCCCCCCCCCCCCCCCCC(=O)OCC(COP(=O)([O-])OCC[N+](C)(C)C)OC(=O)CCCCCCCCCCC (stereo not drawn) [1-stearoyl-2-lauroyl-, 1-stearoyl-2-lauroylglycero-3-phosphocholine]",–
33,"CCCCCCCCCCCCCCCCCC(=O)OCC(COP(=O)([O-])OCC[N+](C)(C)C)OC(=O)CCCCCCCCCCCCC (stereo not drawn) [1-stearoyl-2-myristoyl-, 1-stearoyl-2-myristoylglycero-3-phosphocholine]",–
48,"CCCCCCCCCCCCCCCCCC(=O)OCC(COP(=O)([O-])OCC[N+](C)(C)C)OC(=O)CCCCCCCCCCCCCCC (stereo not drawn) [1-stearoyl-2-palmitoyl-, 1-stearoyl-2-palmitoylglycero-3-phosphocholine]",–
